Common to all, as to assay: NCI-60 cell line screen, 48 h
The test system of test [1] is 786-0 renal.
Test [2] concerns COLO 205 colon.
The subject of test [3] is DMS 273 small cell lung.
The test system of test [4] is SF-295 CNS.
In test [5] the test system is SNB-78 CNS.
Test [6] relates to MALME-3M melanoma.
For test [7], the system named is SR leukemia.
For test [8], the system named is UACC-62 melanoma.
For test [9], the system named is PC-3 prostate.
In test [10] the test system is T-47D breast.

Values joined by “and” are separate entries in the source; they are usually repeats but may differ in a detail not shown here. Equal values may be shown once.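 Each compound was tested at five concentrations against cells in 96-well plates for 48 hours. Here, GI50 denotes the concentration required for 50% inhibition of growth. TGI is the concentration that stops growth completely.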

With `COC(=O)N(C(=O)OC)C(C(=O)O)C(C)C` (stereo not given), the TGI in test [1], in test [2], in [3], in test [4] and in test [5] was greater than 100 µM in each case.

Take `CN(C)CC(C)(C)C(=O)/C=C/c1ccc(/C=C/C(=O)C(C)(C)CN(C)C)cc1`: the TGI in test [1] turned out to be 3.08 µM; in test [2] it was 2.24 µM; in test [3], 2.38 µM; in test [6], 3.97 µM; in test [4] it was 3.84 µM; in test [7] it was 5.45 µM. In test [8], this molecule came in with a TGI of 3.17 µM.

For `O=C(O)CCCCCCC[C@H]1S[C@H]1CCCCCCO`, the TGI in test [1], in test [2], in test [6], in test [4], in [5] and in [7] was greater than 100 µM in each case. Besides, in [8], the TGI was greater than 100 µM.

For `[Cl-].[O-]/N=C(\c1ccccc1)c1ccccn1.[O-]/N=C(\c1ccccc1)c1ccccn1.[O-]/N=C(\c1ccccc1)c1ccccn1.[Sm+3]`, the GI50 was 24.1 µM in [1]; 31.3 µM in [2]; 28.7 µM in [3]; 24.6 µM in test [6]; 18.7 µM in test [4]; 26.2 µM in test [8]. Besides, the TGI was 65.5 µM in test [1]; greater than 100 µM in test [2]; 95.1 µM in test [3]; 88.6 µM in test [6]; 79.9 µM in test [4]; 78.7 µM in [8].

Regarding `Cc1nc(Nc2ccc(Cl)cc2)sc1C(=O)NNc1ccc([N+](=O)[O-])cc1[N+](=O)[O-]`, the TGI in [1] is 29.8 µM; in [2], 39.9 µM; in test [3], 39.3 µM; in [6], 36.2 µM; in test [4], 38.5 µM; in [5], greater than 100 µM. For the same molecule, in test [8], the TGI was 28.6 µM.

As for `CC(=O)[CH-]C(C)=O.CC(=O)[CH-]C(C)=O.[CH2-]CCC.[CH2-]CCC.[Sn+4]`, the GI50 in test [1] was 0.351 µM; in test [2], 0.304 µM; in test [3] it was 1.19 µM; in test [6], 0.2 µM; in [4], 1.45 µM; in test [7] it was 0.382 µM. Further, the GI50 in test [8] is 0.31 µM. The TGI in [1] is 1.56 µM; in test [2], 1.05 µM; in [3], 2.53 µM; in [6], 1.07 µM; in test [4] it was 2.8 µM; in test [7], greater than 100 µM. Besides, the TGI in test [8] was 1.18 µM.

As for `C[N-]c1nnnn1C.[Au+].c1ccc([PH+](c2ccccc2)c2ccccc2)cc1`, the GI50 was 1.74 µM in test [1]; 3.33 µM in [2]; 1.42 µM in test [6]; 3.47 µM in test [4]; 5.28 µM in test [5]; 1.11 µM in [7]. The GI50 in test [8] was 2.06 µM. The TGI is 3.12 µM in test [1]; 8.81 µM in test [2]; 2.91 µM in test [6]; 12.2 µM in [4]; greater than 69.1 µM in test [5]; 4.12 µM in [7]. In test [8], this molecule yielded a TGI of 6.87 µM.

For the molecule `COc1ccc(Nc2nc3ccc(C(F)(F)F)cc3nc2-c2ccccc2)cc1OC`, the TGI in test [1] is 72.7 µM; in test [2], 91.2 µM; in test [3], greater than 100 µM; in test [6] it was greater than 100 µM; in [4], 44.9 µM; in test [7], greater than 100 µM. The TGI in test [8] is greater than 100 µM.

In the case of `COc1ccc(S(=O)(=O)Nc2ccccc2C(=O)O)cc1`, the TGI in test [1], in test [2], in [3], in test [6], in [4] and in test [8] was greater than 100 µM each time.

Consider `CCN(Cc1cccc(F)c1)c1ccc(CO)c(Cl)c1`, for which the GI50 is 10.5 µM in [1]; 1.57 µM in test [2]; 20 µM in test [6]; 21.8 µM in [9]; 1.21 µM in test [4]; 27.3 µM in test [7]. Further, the values for the GI50 in test [10] and in test [8] were 0.148 µM and 0.0741 µM, respectively. The TGI was 30.3 µM in test [1]; 4.85 µM in test [2]; 50.1 µM in test [6]; greater than 82.5 µM in test [9]; greater than 45.3 µM in test [4]; greater than 70.3 µM in test [7]. The TGI was found to be 0.662 µM in test [10] and 0.649 µM in test [8].

Regarding `CN(C)CCCOc1ccc(-c2ccc3ncc4c(c3c2)n(C2CCOCC2)c(=O)n4C)cn1`, the GI50 in test [1] is 1.74 µM; in test [2], 0.825 µM; in [6], 0.354 µM; in test [9], 0.861 µM; in test [4], 1.29 µM; in [7] it was 3.01 µM. For the same molecule, the GI50 in [10] was 0.212 µM; in test [8], 2.73 µM. For the same molecule, the TGI worked out at 12.1 µM in [1]; 3.28 µM in [2]; 3.41 µM in test [6]; 13.8 µM in test [9]; 7.81 µM in test [4]; 15.6 µM in test [7]. Besides, the TGI in test [10] is 2.92 µM; in test [8], 13.8 µM.

Turning to `C=C(COC(C)=O)CC(OC(C)=O)c1ccccc1` (stereo not given), the TGI in test [1], in test [2], in test [3], in test [4], in test [5] and in [8] was greater than 100 µM in each case.

In the case of `CO[C@H]1/C=C/O[C@@]2(C)Oc3c(C)c(O)c4c(c3C2=O)C(=O)C(/C=N/N(c2ccccc2)c2ccccc2)=C(NC(=O)/C(C)=C\C=C\[C@H](C)[C@H](O)[C@@H](C)[C@@H](O)[C@@H](C)[C@H](OC(C)=O)[C@@H]1C)C4=O`, the GI50 in [1] is 1.83 µM; in test [2], 1.75 µM; in test [6], 1.89 µM; in test [9], 1.32 µM; in [4], 1.59 µM; in [7], 2.43 µM. The GI50 is 1.84 µM in test [10] and 1.51 µM in test [8]. The TGI in test [1] was determined as 3.44 µM; in test [2], 3.46 µM; in [6] it was 3.59 µM; in test [9], 2.82 µM; in [4], 3 µM; in test [7] it was 5.77 µM. Moreover, the TGI was 3.85 µM in test [10] and 2.92 µM in test [8].

Consider `O=S(=O)(Nc1ccccc1Cl)c1ccc(-c2cnc(C3CC3)o2)cc1`, for which the GI50 was 0.809 µM in test [1]; 0.489 µM in test [2]; 0.472 µM in test [6]; 0.521 µM in [9]; 0.438 µM in test [4]; 0.0684 µM in [7]. Besides, the figures for the GI50 in test [10] and in test [8] were 0.464 µM and 0.402 µM, respectively. Besides, the TGI was greater than 85.1 µM in test [1]; 5.58 µM in [2]; 44.3 µM in test [6]; greater than 100 µM in test [9]; 15.3 µM in test [4]; greater than 55.7 µM in test [7]. In addition, the TGI in test [10] was greater than 54.7 µM; in test [8] it was 47.6 µM.

Turning to `CC1CCC2(CC1)NN=c1s/c(=C\c3ccc(O)cc3)c(=O)n1N2` (stereo not given), the TGI in [1], in [2], in [3], in test [4], in test [5] and in [8] was greater than 100 µM each time.

For the molecule `COc1ccc(OC)c2c1CC(C(=O)O)(C(=O)O)CC2=O`, the TGI in test [1], in [6], in test [5] and in [8] was greater than 100 µM throughout.

On to `CN[C@H]1C=C[C@@H]2/C=C(C)/C=C/[C@@H](C)[C@H]([C@H](C)[C@H](O)[C@@H](C)NC(C)=O)OC(=O)/C=C/C=C(C)\C=C\[C@]2(C)C1`, for which the GI50 in [1] was 0.00836 µM; in [2], 0.00815 µM; in [6], 0.0808 µM and 0.0458 µM; in test [9], 0.0049 µM; in test [4] it was < 0.001 µM and 0.0049 µM; in [7] it was < 0.001 µM and 0.0049 µM. Besides, the GI50 in [10] is < 0.001 µM and 0.0049 µM; in test [8], 0.022 µM. Also, the TGI is greater than 49 µM in [1]; 8.64 µM in test [2]; 21.7 µM in test [6]; greater than 49 µM in test [9]; greater than 49 µM in [7]; greater than 49 µM in [10]. In test [8], this molecule displayed a TGI of 19.7 µM.

For the molecule `CCCNNC(=O)/C=C/c1ccc(CNCCc2c(C)[nH]c3ccccc23)cc1`, the GI50 in test [1] is 0.057 µM; in [2], 0.0111 µM; in [6], 0.015 µM; in test [9] it was 0.0175 µM; in [4] it was 0.0471 µM; in [7], 0.0191 µM. Besides, the GI50 is 0.00852 µM in [10] and 0.0237 µM in test [8]. Besides, the TGI in test [1] was found to be 1.2 µM; in test [2] it was 0.0428 µM; in test [6], 1.22 µM; in [9], 3.74 µM; in [4], 0.171 µM; in test [7], 4.26 µM. Moreover, the TGI in [10] came to 0.0624 µM; in test [8], 0.0744 µM.
